Test results reported in paper PMC6886798, “Expression of myeloid Src-family kinases is associated with poor prognosis in AML and influences Flt3-ITD kinase inhibitor acquired resistance” (PLoS ONE, 2019).
Where two headings read alike, the source gives them in different places.

Tests used:
[1] = molecular target: T1, LYN (Homo sapiens, UniProt P07948); assay: KINOMEscan; format: binding; conditions: 1.0 µM
T1 construct: purchased Eurofins/DiscoverX KINOMEscan scanMAX

[2] = molecular target: T2, ABL1(Q252H)-nonphosphorylated (Homo sapiens, UniProt P00519, Q252H); assay: KINOMEscan; format: binding; conditions: 1.0 µM
T2 construct: purchased Eurofins/DiscoverX KINOMEscan scanMAX
Method: (§1) Kinase retention to the immobilized ligand is then measured using quantitative real-time PCR for each kinase-specific DNA barcode.

[3] = molecular target: T3, DYRK1A (Homo sapiens, UniProt Q13627); assay: KINOMEscan; format: binding; conditions: 1.0 µM
T3 construct: purchased Eurofins/DiscoverX KINOMEscan scanMAX
Method: as §1

[4] = molecular target: T4, CLK4 (Homo sapiens, UniProt Q9HAZ1); assay: KINOMEscan; format: binding; conditions: 1.0 µM
T4 construct: purchased Eurofins/DiscoverX KINOMEscan scanMAX
Method: as §1

[5] = molecular target: T5, AURKC (Homo sapiens, UniProt Q9UQB9); assay: KINOMEscan; format: binding; conditions: 1.0 µM
T5 construct: purchased Eurofins/DiscoverX KINOMEscan scanMAX
T5 sequence (Q9UQB9 whole entry): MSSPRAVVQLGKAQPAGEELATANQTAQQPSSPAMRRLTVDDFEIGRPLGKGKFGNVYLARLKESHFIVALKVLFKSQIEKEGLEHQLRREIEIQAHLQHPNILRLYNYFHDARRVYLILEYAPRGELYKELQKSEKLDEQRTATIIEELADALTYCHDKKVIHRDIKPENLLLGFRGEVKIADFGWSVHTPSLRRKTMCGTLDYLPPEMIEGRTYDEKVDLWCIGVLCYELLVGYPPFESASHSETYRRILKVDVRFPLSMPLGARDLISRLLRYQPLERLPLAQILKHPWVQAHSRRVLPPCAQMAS
Method: as §1

[6] = molecular target: T6, MINK (Homo sapiens, UniProt Q8N4C8); assay: KINOMEscan; format: binding; conditions: 1.0 µM
T6 construct: purchased Eurofins/DiscoverX KINOMEscan scanMAX
Method: as §1

[7] = molecular target: T7, PIK3CA(H1047Y) (Homo sapiens, UniProt P42336, H1047Y); assay: KINOMEscan; format: binding; conditions: 1.0 µM
T7 construct: purchased Eurofins/DiscoverX KINOMEscan scanMAX
T7 sequence (P42336 whole entry H1047Y): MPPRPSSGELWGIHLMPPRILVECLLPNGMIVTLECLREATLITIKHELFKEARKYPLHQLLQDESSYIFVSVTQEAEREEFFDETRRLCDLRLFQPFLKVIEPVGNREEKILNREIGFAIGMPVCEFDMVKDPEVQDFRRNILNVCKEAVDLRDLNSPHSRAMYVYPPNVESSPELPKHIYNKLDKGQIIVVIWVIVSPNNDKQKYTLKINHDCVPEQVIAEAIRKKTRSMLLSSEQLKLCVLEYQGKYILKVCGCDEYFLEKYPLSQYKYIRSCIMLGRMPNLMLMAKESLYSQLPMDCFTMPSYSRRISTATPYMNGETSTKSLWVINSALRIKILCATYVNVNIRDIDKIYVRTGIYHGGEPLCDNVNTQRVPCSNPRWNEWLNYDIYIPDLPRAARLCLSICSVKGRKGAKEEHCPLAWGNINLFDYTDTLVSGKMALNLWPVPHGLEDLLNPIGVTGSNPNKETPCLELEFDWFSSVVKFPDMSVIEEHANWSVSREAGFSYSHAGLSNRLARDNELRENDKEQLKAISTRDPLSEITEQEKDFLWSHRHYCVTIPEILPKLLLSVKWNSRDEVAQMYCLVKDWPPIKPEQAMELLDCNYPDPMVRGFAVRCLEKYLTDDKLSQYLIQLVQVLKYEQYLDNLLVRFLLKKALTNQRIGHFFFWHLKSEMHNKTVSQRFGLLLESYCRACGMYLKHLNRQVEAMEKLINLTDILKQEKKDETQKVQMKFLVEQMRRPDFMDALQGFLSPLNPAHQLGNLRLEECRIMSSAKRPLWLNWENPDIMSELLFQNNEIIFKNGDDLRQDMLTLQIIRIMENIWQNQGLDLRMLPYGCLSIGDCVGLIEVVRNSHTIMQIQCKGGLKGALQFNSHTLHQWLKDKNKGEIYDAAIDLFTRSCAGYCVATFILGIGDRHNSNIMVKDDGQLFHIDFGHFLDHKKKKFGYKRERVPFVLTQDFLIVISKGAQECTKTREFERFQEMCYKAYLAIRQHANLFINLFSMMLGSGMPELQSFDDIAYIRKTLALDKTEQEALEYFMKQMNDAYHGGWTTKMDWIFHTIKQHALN
Method: as §1

[8] = molecular target: T8, CAMK1B (Homo sapiens, UniProt Q6P2M8); assay: KINOMEscan; format: binding; conditions: 1.0 µM
T8 construct: purchased Eurofins/DiscoverX KINOMEscan scanMAX
Method: as §1

[9] = molecular target: T9, SBK1 (Homo sapiens, UniProt Q52WX2); assay: KINOMEscan; format: binding; conditions: 1.0 µM
T9 construct: purchased Eurofins/DiscoverX KINOMEscan scanMAX
Method: as §1

[10] = molecular target: T10, CSNK1G1 (Homo sapiens, UniProt Q9HCP0); assay: KINOMEscan; format: binding; conditions: 1.0 µM
T10 construct: purchased Eurofins/DiscoverX KINOMEscan scanMAX
T10 sequence (Q9HCP0 whole entry): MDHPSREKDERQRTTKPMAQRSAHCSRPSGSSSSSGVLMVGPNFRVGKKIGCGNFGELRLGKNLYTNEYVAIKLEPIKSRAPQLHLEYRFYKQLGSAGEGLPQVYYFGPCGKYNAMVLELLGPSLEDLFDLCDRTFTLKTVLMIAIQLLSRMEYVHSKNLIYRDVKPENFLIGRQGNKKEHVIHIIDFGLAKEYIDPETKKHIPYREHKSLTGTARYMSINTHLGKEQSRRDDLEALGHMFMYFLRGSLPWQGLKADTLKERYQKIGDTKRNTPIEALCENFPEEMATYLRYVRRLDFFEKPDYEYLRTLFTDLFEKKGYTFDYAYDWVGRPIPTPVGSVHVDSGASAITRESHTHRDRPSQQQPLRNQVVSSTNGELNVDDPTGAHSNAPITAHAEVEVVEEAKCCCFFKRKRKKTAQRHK
Method: as §1

[11] = molecular target: T11, FER (Homo sapiens, UniProt P16591); assay: KINOMEscan; format: binding; conditions: 1.0 µM
T11 construct: purchased Eurofins/DiscoverX KINOMEscan scanMAX
T11 sequence (P16591 whole entry): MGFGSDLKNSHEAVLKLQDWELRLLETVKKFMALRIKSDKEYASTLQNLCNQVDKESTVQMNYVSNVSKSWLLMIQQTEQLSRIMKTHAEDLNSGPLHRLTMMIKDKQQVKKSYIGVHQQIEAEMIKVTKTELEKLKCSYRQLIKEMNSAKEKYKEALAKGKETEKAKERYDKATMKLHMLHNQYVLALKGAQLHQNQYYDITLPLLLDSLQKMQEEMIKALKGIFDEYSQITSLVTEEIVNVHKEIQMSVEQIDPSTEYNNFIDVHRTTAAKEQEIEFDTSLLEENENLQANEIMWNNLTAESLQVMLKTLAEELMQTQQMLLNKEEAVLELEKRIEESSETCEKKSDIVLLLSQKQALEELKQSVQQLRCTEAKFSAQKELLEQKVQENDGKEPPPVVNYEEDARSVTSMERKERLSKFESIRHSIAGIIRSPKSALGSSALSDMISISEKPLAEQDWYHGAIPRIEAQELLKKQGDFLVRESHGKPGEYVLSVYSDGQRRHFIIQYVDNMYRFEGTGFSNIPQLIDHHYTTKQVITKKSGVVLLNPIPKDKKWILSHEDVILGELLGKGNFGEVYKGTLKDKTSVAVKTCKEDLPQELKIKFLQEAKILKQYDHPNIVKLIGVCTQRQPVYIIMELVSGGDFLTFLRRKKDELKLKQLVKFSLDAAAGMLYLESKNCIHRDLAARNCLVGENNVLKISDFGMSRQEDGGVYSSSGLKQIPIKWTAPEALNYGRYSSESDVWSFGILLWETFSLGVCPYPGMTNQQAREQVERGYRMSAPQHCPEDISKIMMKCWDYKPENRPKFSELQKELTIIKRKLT
Method: as §1

[12] = molecular target: T12, RET(V804M) (Homo sapiens, UniProt P07949, V804M); assay: KINOMEscan; format: binding; conditions: 1.0 µM
T12 construct: purchased Eurofins/DiscoverX KINOMEscan scanMAX
T12 sequence (P07949 29-1114 V804M): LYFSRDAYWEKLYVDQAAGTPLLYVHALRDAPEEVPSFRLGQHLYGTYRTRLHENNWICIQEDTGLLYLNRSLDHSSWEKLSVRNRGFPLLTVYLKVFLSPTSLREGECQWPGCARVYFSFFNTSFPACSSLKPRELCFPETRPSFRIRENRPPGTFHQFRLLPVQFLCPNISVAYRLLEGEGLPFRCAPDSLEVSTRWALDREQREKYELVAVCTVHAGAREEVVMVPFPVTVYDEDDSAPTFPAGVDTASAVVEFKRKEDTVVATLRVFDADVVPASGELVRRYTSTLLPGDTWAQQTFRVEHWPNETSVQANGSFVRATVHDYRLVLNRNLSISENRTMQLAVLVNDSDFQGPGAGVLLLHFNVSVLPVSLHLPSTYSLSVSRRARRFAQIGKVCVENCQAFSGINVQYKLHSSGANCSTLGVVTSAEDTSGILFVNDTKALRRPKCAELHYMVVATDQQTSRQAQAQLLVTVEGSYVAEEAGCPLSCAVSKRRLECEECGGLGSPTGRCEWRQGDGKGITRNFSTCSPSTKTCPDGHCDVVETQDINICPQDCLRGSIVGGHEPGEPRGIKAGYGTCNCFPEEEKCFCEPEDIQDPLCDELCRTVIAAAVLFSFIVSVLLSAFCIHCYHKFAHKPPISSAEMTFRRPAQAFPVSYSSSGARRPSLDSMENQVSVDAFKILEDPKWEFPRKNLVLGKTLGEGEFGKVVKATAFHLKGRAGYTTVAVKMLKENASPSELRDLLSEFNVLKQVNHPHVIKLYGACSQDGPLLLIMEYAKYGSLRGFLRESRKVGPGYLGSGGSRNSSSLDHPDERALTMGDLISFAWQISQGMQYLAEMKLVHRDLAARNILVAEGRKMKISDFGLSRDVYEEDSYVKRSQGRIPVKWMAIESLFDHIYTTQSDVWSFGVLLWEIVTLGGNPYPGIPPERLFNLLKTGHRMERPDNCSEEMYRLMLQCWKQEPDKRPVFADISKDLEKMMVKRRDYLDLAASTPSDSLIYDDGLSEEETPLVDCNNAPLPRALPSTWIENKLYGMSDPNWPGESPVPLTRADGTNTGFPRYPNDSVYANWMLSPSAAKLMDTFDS
Method: as §1

[13] = molecular target: T13, LIMK2 (Homo sapiens, UniProt P53671); assay: KINOMEscan; format: binding; conditions: 1.0 µM
T13 construct: purchased Eurofins/DiscoverX KINOMEscan scanMAX
T13 sequence (P53671 whole entry): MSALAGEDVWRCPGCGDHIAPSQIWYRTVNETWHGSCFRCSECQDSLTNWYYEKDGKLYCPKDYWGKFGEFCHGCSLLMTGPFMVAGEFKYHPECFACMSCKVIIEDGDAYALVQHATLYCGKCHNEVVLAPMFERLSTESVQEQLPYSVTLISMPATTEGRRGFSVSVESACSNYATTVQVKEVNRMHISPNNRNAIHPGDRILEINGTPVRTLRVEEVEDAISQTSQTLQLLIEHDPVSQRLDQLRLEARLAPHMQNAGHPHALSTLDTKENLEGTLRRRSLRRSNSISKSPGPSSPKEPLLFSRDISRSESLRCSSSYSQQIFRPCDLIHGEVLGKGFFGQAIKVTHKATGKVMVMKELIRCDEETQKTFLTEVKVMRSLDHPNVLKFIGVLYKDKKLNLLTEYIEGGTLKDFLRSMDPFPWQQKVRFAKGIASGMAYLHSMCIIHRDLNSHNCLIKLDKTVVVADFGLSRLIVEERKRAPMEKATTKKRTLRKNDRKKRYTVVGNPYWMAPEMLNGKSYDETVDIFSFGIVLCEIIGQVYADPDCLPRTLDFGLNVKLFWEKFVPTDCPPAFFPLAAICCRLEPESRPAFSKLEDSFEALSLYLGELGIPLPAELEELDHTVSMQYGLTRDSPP
Method: as §1

[14] = molecular target: T14, FLT3(D835Y) (Homo sapiens, UniProt P36888, D835Y); assay: KINOMEscan; format: binding; conditions: 1.0 µM
T14 construct: purchased Eurofins/DiscoverX KINOMEscan scanMAX
Method: as §1

[15] = molecular target: T15, DCAMKL1 (Homo sapiens, UniProt O15075); assay: KINOMEscan; format: binding; conditions: 1.0 µM
T15 construct: purchased Eurofins/DiscoverX KINOMEscan scanMAX
Method: as §1

[16] = test system: TF-1/FLT3-ITD + Fgr-T338L cells; assay: CellTiter-Blue cell viability; format: cell-based, human
Method: (§2) Full-length cDNA clones of each kinase were subcloned into the retroviral expression vectors pMSCV-neo or pMSCV-puro (Clontech). High-titer retroviral stocks were produced in 293T cells co-transfected with each pMSCV construct and an amphotropic packaging vector. TF-1 cells (10^6) were resuspended in 5.0 mL of undiluted viral supernatant and centrifuged at 1,000 × g for 4 h at 18 °C in the presence of 4 μg/mL Polybrene (Sigma-Aldrich) to enhance viral transduction. Forty-eight hours after infection, the cells began a two-week selection period with 400 μg/ml G-418 (neo vectors) or 3 μg/mL puromycin (puro vectors). Following selection, cells were maintained with 200 μg/ml G418 or 1 μg/mL puromycin. For double transduction experiments, TF-1 cells were first infected with the pMSCV-neo-Flt3-ITD virus, selected with G418, followed by the pMSCV-puro virus carrying Hck or Fgr and puromycin selection. All TF-1 cell populations that expressed Flt3-ITD (including inhibitor-resistant mutants) proliferated in a GM-CSF-independent manner, and were therefore subcultured in the absence of GM-CSF.
(§3) Cells were seeded at 10^5 per mL in the presence or absence of inhibitors with DMSO as carrier solvent (0.1% final). Cell viability was assessed using the CellTiter-Blue reagent according to the manufacturer’s instructions (Promega). Fluorescence intensity, which correlates directly with viable cell number, was measured using a SpectraMax M5 microplate reader. Each experiment included three technical replicates per condition, and each experiment was repeated at least three times.

[17] = test system: TF-1/Flt3-ITD N676S + Fgr cells; assay: CellTiter-Blue cell viability; format: cell-based, human; conditions: S9 Fig, 48 h
Method: as §2, §3

[18] = test system: TF-1/Flt3-ITD + Fgr cells; assay: CellTiter-Blue cell viability; format: cell-based, human; conditions: Fig 3; Flt3-ITD: WT; SFK: Fgr; 72 hours; read-out: IC50, nM (growth inhibition)
Method: as §2, §3

[19] = test system: TF-1/Flt3-ITD D835Y + Hck cells; assay: CellTiter-Blue cell viability; format: cell-based, human; conditions: Fig 3, SFK: Hck, 72 hours, read-out: IC50, nM (growth inhibition)
Method: as §2, §3

[20] = test system: TF-1/Flt3-ITD N676S cells; assay: CellTiter-Blue cell viability; format: cell-based, human
Method: as §2, §3

[21] = test system: TF-1/FLT3-ITD + Fgr-T338M cells; assay: CellTiter-Blue cell viability; format: cell-based, human
Method: as §2, §3

[22] = test system: TF-1/Flt3-ITD cells; assay: CellTiter-Blue cell viability; format: cell-based, human; conditions: 72 hours
Method: as §2, §3

[23] = test system: TF-1/Flt3-ITD + Hck cells; assay: CellTiter-Blue cell viability; format: cell-based, human; conditions: Fig 3; Flt3-ITD: WT; SFK: Hck; 72 hours; read-out: IC50, nM (growth inhibition)
Method: as §2, §3

[24] = test system: TF-1/Flt3-ITD N676S + Hck cells; assay: CellTiter-Blue cell viability; format: cell-based, human; conditions: S9 Fig, 48 h
Method: as §2, §3

[25] = test system: FLT3(ITD,D835V); assay: KINOMEscan; format: binding, human; conditions: 1.0 µM
Method: as §1

[26] = test system: EGFR(L747-T751del,Sins); assay: KINOMEscan; format: binding, human; conditions: 1.0 µM
Method: as §1

[27] = molecular target: T16, Lyn T338F (Homo sapiens, UniProt P07948, T319F); assay: Z'-LYTE in vitro kinase assay; format: biochemical; conditions: read-out: A-419259 IC50, Fig 5B, ATP at Km, mean ± SE, three independent determinations
T16 construct: Recombinant near-full-length kinases, consisting of the SH2, SH3 and kinase domains plus the negative regulatory tail; made in house; host or cells: E. coli BL21Star (DE3), co-expressed with Csk and PTP1B

[28] = molecular target: T17, LCK (Homo sapiens, UniProt P06239); assay: KINOMEscan; format: binding; conditions: 1.0 µM
T17 construct: purchased Eurofins/DiscoverX KINOMEscan scanMAX

T1 sequence (P07948 whole entry): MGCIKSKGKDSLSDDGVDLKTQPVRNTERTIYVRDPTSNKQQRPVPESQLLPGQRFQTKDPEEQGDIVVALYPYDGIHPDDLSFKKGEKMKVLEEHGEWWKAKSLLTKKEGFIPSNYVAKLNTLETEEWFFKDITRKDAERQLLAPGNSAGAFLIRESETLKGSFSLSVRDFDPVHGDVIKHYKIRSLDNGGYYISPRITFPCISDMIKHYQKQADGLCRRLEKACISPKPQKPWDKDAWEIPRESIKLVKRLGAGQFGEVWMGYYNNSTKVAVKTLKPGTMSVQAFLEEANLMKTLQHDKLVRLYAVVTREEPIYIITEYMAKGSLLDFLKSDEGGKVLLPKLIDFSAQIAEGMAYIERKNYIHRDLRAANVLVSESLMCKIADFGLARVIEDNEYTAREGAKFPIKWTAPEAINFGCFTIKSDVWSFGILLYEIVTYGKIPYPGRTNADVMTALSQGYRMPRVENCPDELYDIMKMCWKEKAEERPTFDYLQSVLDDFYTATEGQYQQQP

## CN1CCN(C2CCC(n3cc(-c4ccc(Oc5ccccc5)cc4)c4c(N)ncnc43)CC2)CC1 (stereo not shown) [A-419259]
[1]
  % Control: 1.7%
[2]
  % Control: 0.85%
[3]
  % Control: 99%
[4]
  % Control: 100%
[5]
  % Control: 79%
[6]
  % Control: 30%
[7]
  % Control: 99%
[8]
  % Control: 100%
[9]
  % Control: 96%
[10]
  % Control: 80%
[11]
  % Control: 100%
[12]
  % Control: 21%
[13]
  % Control: 91%
[14]
  % Control: 7.6%
[15]
  % Control: 43%
[16]; Fgr T338L as printed
  resistance to the inhibitor in cells: about 3 fold
[16]; Fig 6B, TF-1/FLT3-ITD + Fgr-T338L, 72 hours
  IC50: > 1000 nM
[17]
  IC50: 173 nM
[18]
  IC50: 22.6 nM
[19]
  IC50: > 100 nM
[20]; Fig 9A, 72 hours, read-out: IC50 (growth arrest)
  IC50: 176 nM
[20]; S9 Fig, N676S control, 48 h, read-out: IC50 (cell viability)
  IC50: 89.1 nM
[21]
  resistance to the inhibitor in cells: about 3 fold
[22]; Fig 3, Flt3-ITD: WT, SFK: none, read-out: IC50, nM (growth inhibition)
  IC50: 18.2 nM
[22]; Fig 9A, control TF-1/Flt3-ITD cells, read-out: IC50 (growth arrest)
  IC50: 26 nM
[23]
  IC50: 15.4 nM
[24]
  IC50: 129 nM
[25]
  % Control: 30%
[26]
  % Control: 16%
[27]
  IC50: 242 ± 1.2 nM
[28]
  % Control: 2.3%
